Consider 1 molecule from patent US11780868B1, “Homoleptic metal coordination complexes as antifungal agents” (King Abdulaziz University, priority 2023, dated 2023).

Data set [1] relates to C. albicans 4085. The experiment in a line: Broth microdilution MIC/MFC (CLSI M27-A4). Type of data set: cell-based, Candida albicans. As to conditions: C. albicans 4085 (Flz resistant). On the procedure: (§1) In this work, nine strains of C. albicans procured from Charlotte Maxeke Johannesburg Academic Hospital under ethical clearance number M000402 were employed (Table 1). All the C. albicans strains were preserved at −70° C. deep freezer in 50% (v/v) anhydrous glycerol (Sigma-Aldrich St. Louis, MO, U.S.A.). For conducting experiments, cultures were revived in Sabouraud Dextrose broth (SDB; Merck, Germany) at 37° C. and 120 rpm for 24 h. Additionally, the RPMI 1640 medium and MOPS (Sigma-Aldrich, USA) were prepared as described by the Clinical and Laboratory Standards Institute (CLSI).
(§2) The activity of C1 against Candida species (n=9) was first estimated in terms of minimum inhibitory concentration (MIC) and minimum fungicidal concentration (MFC). […] Briefly, stock solutions of Flz (used as reference; Sigma-Aldrich St. Louis, MO, U.S.A.) and the synthesized compound was prepared in 1% dimethyl sulfoxide (DMSO; Sigma-Aldrich St. Louis, MO, U.S.A.) and the test concentrations were formulated in RPMI 1640-MOPS medium. A two-fold dilution of the compound (1250-0.61 μg/mL) and reference drug (128-0.062 μg/mL) was prepared in 96 well plates which were then seeded with C. albicans inoculum (1×10^6 cells/mL) and incubated at 37° C. for 24 h. In every set of experiments, sterility control, 1% DMSO as negative control and growth control were included. Growth was quantified by reading the optical density at 620 nm in a UV-1800 SHIMADZU spectrophotometer (Shimadzu Corporation, Japan). The MIC was determined as the lowest concentration that inhibited the growth of Candida strains. To determine MFC, each well without visible growth was subcultured onto the SDA plates for 24 hours at 37° C. The lowest concentration killing ≥99.9% of Candida was taken as the MFC value of the test compound.
(In general: Broth dilution looks for growth in wells or tubes with falling amounts of substance.)

For data set [2], the system named is C. albicans 4106. The experiment in a line: Broth microdilution MIC/MFC (CLSI M27-A4). Type of data set: cell-based, Candida albicans. As to conditions: C. albicans 4106 (Flz resistant). Here is the method:
as §1, §2

In data set [3] the test system is C. albicans 4175. Kind of data set: Broth microdilution MIC/MFC (CLSI M27-A4). Type of data set: cell-based, Candida albicans. As to conditions: C. albicans 4175 (Flz sensitive). Here is the method: as §1, §2
For data set [4], the system named is C. albicans 4180. Kind of data set: Broth microdilution MIC/MFC (CLSI M27-A4). As to conditions: C. albicans 4180 (Flz sensitive). Type of data set: cell-based, Candida albicans. On the procedure:
as §1, §2

The test system of data set [5] is C. albicans 4251. The experiment in a line: Broth microdilution MIC/MFC (CLSI M27-A4). As to conditions: C. albicans 4251 (Flz sensitive). It counts as cell-based, Candida albicans. On the procedure:
as §1, §2

Data set [6] concerns C. albicans 4324. The experiment in a line: Broth microdilution MIC/MFC (CLSI M27-A4). As to conditions: C. albicans 4324 (Flz resistant). It counts as cell-based, Candida albicans. Here is the method: as §1, §2
For data set [7], the system named is C. albicans 4554. The experiment in a line: Broth microdilution MIC/MFC (CLSI M27-A4). As to conditions: C. albicans 4554 (Flz sensitive). It counts as cell-based, Candida albicans. On the procedure: as §1, §2
For data set [8], the system named is C. albicans 5112. Kind of data set: Broth microdilution MIC/MFC (CLSI M27-A4). As to conditions: C. albicans 5112 (Flz resistant). It counts as cell-based, Candida albicans. Here is the method:
as §1, §2

Data set [9] has as its system C. albicans SC5314. The experiment in a line: Broth microdilution MIC/MFC (CLSI M27-A4). The conditions noted are these: C. albicans SC5314 (control). It counts as cell-based, Candida albicans. On the procedure:
as §1, §2

For data set [10], the system named is Flz resistant strains of C. albicans. Kind of data set: Broth microdilution MIC/MFC, range over strains. Type of data set: cell-based, Candida albicans. Here is the method: as §1
(§3) The activity of C1 against Candida species (n=9) was first estimated in terms of minimum inhibitory concentration (MIC) and minimum fungicidal concentration (MFC). […] Briefly, stock solutions of Flz (used as reference; Sigma-Aldrich St. Louis, MO, U.S.A.) and the synthesized compound was prepared in 1% dimethyl sulfoxide (DMSO; Sigma-Aldrich St. Louis, MO, U.S.A.) and the test concentrations were formulated in RPMI 1640-MOPS medium. […] Growth was quantified by reading the optical density at 620 nm in a UV-1800 SHIMADZU spectrophotometer (Shimadzu Corporation, Japan). The MIC was determined as the lowest concentration that inhibited the growth of Candida strains. […]

The test system of data set [11] is Flz susceptible strains of C. albicans. The experiment in a line: Broth microdilution MIC/MFC, range over strains. It counts as cell-based, Candida albicans. On the procedure: as §1, §3
For data set [12], the system named is horse red blood cells. The experiment in a line: Haemolytic activity. Type of data set: cell-based. The conditions noted are these: horse RBC. On the procedure: To determine the cytotoxicity of C1, horse red blood cells (H-RBC; NHLS, Johannesburg, South Africa) were used. The horse blood was centrifuged, and the cell pellet was secured and washed three times with cold PBS. The final pellet was dissolved in cold PBS to make a 10% H-RBC solution. From this solution, 15 mL of 1% H-RBC solution was again prepared with the help of PBS. Then, 1 mL was aliquoted and added to various concentrations (0.5×MIC, 1×MIC, 2×MIC and 4×MIC) of C1 in 2 mL Eppendorf tubes. The negative control consisted of the RBC solution mixed with PBS; while the positive control consisted of RBC mixed with 1% Triton X-100. The samples were incubated for 4 h at 37° C. Following incubation, the samples were centrifuged at 2000 rpm for 10 minutes and supernatant (200 μL) was transferred to a flat-bottomed 96-well microtiter plate and the absorbance was measured at 450 nm using a SpectraMax ID3 Multimode Plate Reader (Molecular Devices, LLC., USA). The percentage of haemolysis was calculated by using the following equation: […]

As to `Brc1ccc([O][Co][O]c2ccc(Br)cc2C=Nc2ccc3c(c2)OCCO3)c(C=Nc2ccc3c(c2)OCCO3)c1` [Complex C1, [Co(L)2]], the “Median MIC” value was 9.76 mg/L in [1] (37° C., 24 h); 9.76 mg/L in data set [2] (37° C., 24 h); 1.22 mg/L in data set [3] (37° C., 24 h); 2.44 mg/L in data set [4] (37° C., 24 h); 4.88 mg/L in data set [5] (37° C., 24 h); 9.76 mg/L in data set [6] (37° C., 24 h). Also, the “Median MIC” value came out at 2.44 mg/L in data set [7] (37° C., 24 h); 19.53 mg/L in data set [8] (37° C., 24 h); 2.44 mg/L in data set [9] (37° C., 24 h). For the same molecule, the “Median MFC” value in data set [1] (killing ≥99.9%) came to 19.53 mg/L; in data set [2] (killing ≥99.9%), 19.53 mg/L; in [3] (killing ≥99.9%), 2.44 mg/L; in data set [4] (killing ≥99.9%) it was 4.88 mg/L; in data set [5] (killing ≥99.9%), 9.76 mg/L; in [6] (killing ≥99.9%), 19.53 mg/L. Moreover, the “Median MFC” value is 4.88 mg/L in data set [7] (killing ≥99.9%), 78.12 mg/L in data set [8] (killing ≥99.9%) and 4.88 mg/L in data set [9] (killing ≥99.9%). Further, the figures for the MIC value range in data set [10] and in data set [11] were 9.76 to 19.53 mg/L and 1.22 to 4.88 mg/L, respectively. The “haemolytic activity (in words)” value in [12] is given as “considerably less haemolytic activity”. For the same molecule, in [12] (4×MIC, 4 h, 37° C.), the haemolytic activity was 10%.
